Values joined by “and” are separate entries in the source; they are usually repeats but may differ in a detail not shown here. Equal values may be shown once. Inconclusive results and toxic doses are left out. Cut-off read from the data, not from the text of the source: active = T/C of 150% or more; inactive = T/C below 125%.
System: L1210 leukemia ip in BDF1 mice, survival T/C
Assay: NCI In Vivo Anticancer Drug Screen. Data for tumor model L1210 Leukemia (intraperitoneal) in B6D2F1 (BDF1) mice
Details: endpoint: mean survival time, higher = longer survival
How it was run: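 Mice bearing the transplanted tumor received compound or vehicle. Survival of the treated group was divided by that of the vehicle-treated control group to give the ratio.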

[1] = dose: 100.0 mg/kg/injection, schedule: Q04DX003 (ip), vehicle: Klucel (hydroxypropylcellulose) (HPC)
[2] = dose: 200.0 mg/kg/injection, schedule: Q04DX003 (ip), vehicle: Klucel (hydroxypropylcellulose) (HPC)
[3] = dose: 100.0 mg/kg/injection, schedule: Q04DX002 (ip), vehicle: Klucel (hydroxypropylcellulose) (HPC)
[4] = dose: 200.0 mg/kg/injection, schedule: Q04DX002 (ip), vehicle: Klucel (hydroxypropylcellulose) (HPC)
[5] = dose: 50.0 mg/kg/injection, schedule: Q01DX001 (ip), vehicle: carboxymethylcellulose (CMC)
[6] = dose: 100.0 mg/kg/injection, schedule: Q01DX001 (ip), vehicle: carboxymethylcellulose (CMC)
[7] = dose: 200.0 mg/kg/injection, schedule: Q01DX001 (ip), vehicle: carboxymethylcellulose (CMC)
[8] = dose: 400.0 mg/kg/injection, schedule: Q01DX001 (ip), vehicle: carboxymethylcellulose (CMC)
[9] = dose: 100.0 mg/kg/injection, schedule: Q01DX001 (ip), vehicle: Klucel (hydroxypropylcellulose) (HPC)
[10] = dose: 200.0 mg/kg/injection, schedule: Q01DX001 (ip), vehicle: Klucel (hydroxypropylcellulose) (HPC)
[11] = dose: 75.0 mg/kg/injection, schedule: Q01DX001 (ip), vehicle: saline
[12] = dose: 400.0 mg/kg/injection, schedule: Q01DX001 (ip), vehicle: Klucel (hydroxypropylcellulose) (HPC)
[13] = dose: 400.0 mg/kg/injection, schedule: Q04DX002 (ip), vehicle: Klucel (hydroxypropylcellulose) (HPC)

Measured: T/C

N#Cc1sc2ccccc2c1CBr
inactive: dose: 6.25 mg/kg/injection, schedule: Q01DX009 (ip), vehicle: Klucel (hydroxypropylcellulose) (HPC) 93 % of control | dose: 12.5 mg/kg/injection, schedule: Q01DX009 (ip), vehicle: Klucel (hydroxypropylcellulose) (HPC) 94 % of control | dose: 25.0 mg/kg/injection, schedule: Q01DX009 (ip), vehicle: Klucel (hydroxypropylcellulose) (HPC) 100 % of control | [1] 100 % of control | [2] 94 % of control

CC1=C2C(=CC(C)(C)[C@@H]2O)C(=O)[C@](C)(O)C12CC2
inactive: dose: 75.0 micrograms/kg/injection, schedule: Q01DX Z (ip), vehicle: saline 98 % of control | dose: 150.0 micrograms/kg/injection, schedule: Q01DX Z (ip), vehicle: saline 104 % of control | dose: 300.0 micrograms/kg/injection, schedule: Q01DX Z (ip), vehicle: saline 106 % of control | dose: 600.0 micrograms/kg/injection, schedule: Q01DX Z (ip), vehicle: saline 106 % of control

CC(O)(c1ccncc1)c1cc2ccccc2n1S(=O)(=O)c1ccccc1 (stereo not given)
inactive: [3] 95 % of control | [4] 87 % of control

O=Cc1[nH]c(=S)[nH]c(=O)c1Cc1cccc2ccccc12
inactive: dose: 100.0 mg/kg/injection, schedule: Q01DX009 (ip), vehicle: saline with Tween-80 97 % of control | dose: 200.0 mg/kg/injection, schedule: Q01DX009 (ip), vehicle: saline with Tween-80 101 % of control

CN(C)Cc1c(C=C(c2ccccc2)c2ccccc2)ccc2ccccc12
inactive: [5] 94 % of control | [6] 96 % of control | [7] 94 % of control | [8] 96 % of control

CN(C)C1C=CS(=O)(=O)C1 (stereo not given)
inactive: [9] 106 % of control | [10] 106 % of control

Cc1ccc(S(=O)(=O)Nc2ccc(NS(=O)(=O)c3ccc(C)cc3)cc2)cc1
inactive: dose: 100.0 mg/kg/injection, schedule: Q01DX009 (ip), vehicle: saline 97 % of control | [1] 105 % of control | dose: 200.0 mg/kg/injection, schedule: Q01DX009 (ip), vehicle: saline 94 % of control | [2] 95 % of control | dose: 400.0 mg/kg/injection, schedule: Q01DX009 (ip), vehicle: saline 94 % of control | dose: 400.0 mg/kg/injection, schedule: Q04DX003 (ip), vehicle: Klucel (hydroxypropylcellulose) (HPC) 101 % of control

CS(=O)(=O)N(CC(=O)O)Cc1ccc(Cl)c(Cl)c1
inactive: dose: 100.0 mg/kg/injection, schedule: Q01DX009 (ip), vehicle: other 100 % of control | dose: 100.0 mg/kg/injection, schedule: Q04DX003 (ip), vehicle: other 97 % of control | dose: 200.0 mg/kg/injection, schedule: Q01DX009 (ip), vehicle: other 104 % of control | dose: 200.0 mg/kg/injection, schedule: Q04DX003 (ip), vehicle: other 97 % of control | dose: 400.0 mg/kg/injection, schedule: Q01DX009 (ip), vehicle: other 96 % of control | dose: 400.0 mg/kg/injection, schedule: Q04DX003 (ip), vehicle: other 95 % of control

COc1cc(CC(=O)C2CN(C(=O)Cc3cc(Cl)c(OC)c(OC)c3)c3ccc(Br)cc32)cc(Cl)c1OC (stereo not given)
inactive: dose: 50.0 mg/kg/injection, schedule: Q01DX001 (ip), vehicle: saline 96 % of control | dose: 100.0 mg/kg/injection, schedule: Q01DX001 (ip), vehicle: saline 96 % of control | dose: 200.0 mg/kg/injection, schedule: Q01DX001 (ip), vehicle: saline 90 % of control | dose: 400.0 mg/kg/injection, schedule: Q01DX001 (ip), vehicle: saline 93 % of control

Clc1ccc2c(Cl)cc(Cl)nc2c1
inactive: [11] 92 % of control | dose: 300.0 mg/kg/injection, schedule: Q01DX001 (ip), vehicle: saline 87 % of control

CC1=NCC[N-]CC[N-]CCN=C(C)C2CCCC1[N-]2.[Mn+3]
inactive: dose: 10.0 mg/kg/injection, schedule: Q01DX001 (ip), vehicle: saline 105 % of control | dose: 20.0 mg/kg/injection, schedule: Q01DX001 (ip), vehicle: saline 102 % of control | dose: 40.0 mg/kg/injection, schedule: Q01DX001 (ip), vehicle: saline 102 % of control

CC(=O)OC1OC(COC(=O)c2ccccc2)C(OC(=O)c2ccccc2)C1OC(=O)c1ccccc1 (stereo not given)
inactive: [9] 118 % of control and 95 % of control | dose: 100.0 mg/kg/injection, schedule: Q01DX009 (ip), vehicle: Klucel (hydroxypropylcellulose) (HPC) 92 % of control | [10] 97 % of control and 92 % of control | [12] 101 % of control and 92 % of control | dose: 400.0 mg/kg/injection, schedule: Q01DX009 (ip), vehicle: Klucel (hydroxypropylcellulose) (HPC) 92 % of control

COc1ccc2c(c1)CC(CN1CCC3(CC1)C(=O)N(C)CN3c1ccccc1)O2 (stereo not given)
inactive: dose: 75.0 mg/kg/injection, schedule: Q04DX003 (ip), vehicle: Klucel (hydroxypropylcellulose) (HPC) 101 % of control | dose: 150.0 mg/kg/injection, schedule: Q04DX003 (ip), vehicle: Klucel (hydroxypropylcellulose) (HPC) 107 % of control | dose: 300.0 mg/kg/injection, schedule: Q04DX003 (ip), vehicle: Klucel (hydroxypropylcellulose) (HPC) 95 % of control

CCOC(=S)c1ccc(S(=O)(=O)Nc2ccc(OCC)cc2)cc1
inactive: [9] 95 % of control | [10] 98 % of control | [12] 95 % of control

CCCCS(=O)(=O)N1CCCC(C)C1 (stereo not given)
inactive: [3] 100 % of control | [4] 107 % of control | [13] 103 % of control

Cn1c(CN(CCCl)CCCl)nc2c1c(=O)[nH]c(=O)n2C
inactive: [5] 108 % of control | [6] 102 % of control | dose: 178.0 mg/kg/injection, schedule: Q01DX001 (ip), vehicle: carboxymethylcellulose (CMC) 109 % of control | [7] 119 % of control | dose: 267.0 mg/kg/injection, schedule: Q01DX001 (ip), vehicle: carboxymethylcellulose (CMC) 111 % of control and 116 % of control | [8] 93 % of control | dose: 600.0 mg/kg/injection, schedule: Q01DX001 (ip), vehicle: carboxymethylcellulose (CMC) 90 % of control

Clc1ccc(CSc2ncc(Br)c(N3CC3)n2)c(Cl)c1
inactive: dose: 88.0 mg/kg/injection, schedule: Q01DX Z (ip), vehicle: methylcellulose (MC) 89 % of control | dose: 133.0 mg/kg/injection, schedule: Q01DX Z (ip), vehicle: methylcellulose (MC) 94 % of control

CN(CC#CCOc1ccc(Cl)cc1Cl)c1ccccc1
inactive: [3] 102 % of control | [4] 98 % of control | [13] 91 % of control

COC(=O)C1C2CC3c4[nH]c5cc(OC)ccc5c4CCN3CC2CC(OC)C1OC (stereo not given)
inactive: dose: 0.78 mg/kg/injection, schedule: Q03HX024 (ip), vehicle: saline 104 % of control | dose: 1.56 mg/kg/injection, schedule: Q03HX024 (ip), vehicle: saline 96 % of control | dose: 2.0 mg/kg/injection, schedule: Q01DX009 (ip), vehicle: saline 93 % of control | dose: 3.12 mg/kg/injection, schedule: Q03HX024 (ip), vehicle: saline 100 % of control | dose: 4.0 mg/kg/injection, schedule: Q01DX009 (ip), vehicle: saline 94 % of control | dose: 6.25 mg/kg/injection, schedule: Q03HX024 (ip), vehicle: saline 110 % of control | dose: 6.25 mg/kg/injection, schedule: Q04DX003 (ip), vehicle: saline 95 % of control | dose: 8.0 mg/kg/injection, schedule: Q01DX009 (ip), vehicle: saline 88 % of control | dose: 12.5 mg/kg/injection, schedule: Q04DX003 (ip), vehicle: saline 97 % of control | dose: 16.0 mg/kg/injection, schedule: Q01DX009 (ip), vehicle: saline 89 % of control | dose: 18.75 mg/kg/injection, schedule: Q01DX001 (ip), vehicle: saline 102 % of control | dose: 25.0 mg/kg/injection, schedule: Q04DX003 (ip), vehicle: saline 102 % of control | dose: 32.0 mg/kg/injection, schedule: Q01DX009 (ip), vehicle: saline 96 % of control | dose: 37.5 mg/kg/injection, schedule: Q01DX001 (ip), vehicle: saline 112 % of control | dose: 50.0 mg/kg/injection, schedule: Q04DX003 (ip), vehicle: saline 105 % of control and 122 % of control | [11] 112 % of control

CC(C)c1ccc(C(c2ccc(C(C)C)cc2)c2ccc(C(C)C)cc2)cc1
inactive: dose: 100.0 mg/kg/injection, schedule: Q01DX001 (ip), vehicle: saline with Tween-80 104 % of control | dose: 200.0 mg/kg/injection, schedule: Q01DX001 (ip), vehicle: saline with Tween-80 91 % of control

NC(=O)c1cccn1-c1cccc2c(-n3cccc3C(N)=O)cccc12
inactive: dose: 50.0 mg/kg/injection, schedule: Q04DX002 (ip), vehicle: saline with Tween-80 89 % of control
